Assay results taken from patent US9975853B2, “Tetrahydroisoquinolinone derivatives and their use in the inhibition of the HSP70 protein” (Julius-Maximilians-Universitaet Wuerzburg, priority 2014, dated 2018).

Key:
[1] = test system: HSP70/HSP90 multi-chaperone client proteins; assay: Western blot analysis of HSP70/HSP90 chaperone-dependent signaling intermediates and substrates in INA-6 cells; format: cell-based, human; details: INA-6, 0.6 μM
Experimental: (§1) Western Blot Analysis. Protein expression levels were determined with Western blotting procedures (M. Chatterjee, et al., Blood 2002, 100, 3311-3318). Following separation by SDS-PAGE, proteins were transferred onto nitrocellulose membranes (Schleicher & Schuell, Dassel, Germany) and stained with antibodies against Hsp72, Hsp73, Hsp90 (all from Enzo Life Science, Lörrach, Germany), AIF, lamin A, caspases 9 and 3, PARP (all from Santa Cruz, Heidelberg, Germany). An anti-α tubulin antibody (Sigma, Deisenhofen, Germany) was employed to assess equal loading. Secondary antibodies used were anti-rat (Enzo Life Science), anti-rabbit and anti-mouse (both from GE Healthcare, Little Chalfont, UK). […] The heat shock proteins HSP72 and HSP73 critically interact with HSP90 in order to mediate an essential chaperone function for a multitude of proteins including various signaling intermediates. According to an established HSP72/73-dependent client protein signature and its role for survival in MM, the proposed anti-HSP72/73 effect of trans-7b in the INA-6 multiple myeloma (MM) cell line model was evaluated. […] Lysates were cleared by centrifugation, measured by quantitative protein assay (Bio-Rad, München, Germany) and subjected to SDS gel electrophoresis. […]

HSP90 = assay: Western blot analysis of HSP90 expression in INA-6 cells; format: cell-based, human; details: INA-6, 0.6 μM, with Z-VAD-FMK 50 μM
Experimental: as §1

## COc1ccc(C2C(C(=O)Nc3cccc(C)n3)c3ccccc3C(=O)N2c2ccccc2)cc1 (stereo not drawn) [trans-7b, trans-3-(4-Methoxyphenyl)-N-(6-methylpyridin-2-yl)-1-oxo-2-phenyl-1,2,3,4-tetrahydroisoquinoline-4-carboxamide]
[1]
  AKT, C-Raf, RIP, IKKα and MEK levels: strongly downregulated
  p-MEK, p-ERK and pSTAT3 levels: downregulated
HSP90
  HSP90 expression: remains unchanged
